Data as given in PubChem BioAssay (NCI).
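Compound exposure: 48 hours, 5 concentrations, 96-well plates. The concentration for full growth arrest is given as TGI.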

What was measured:
Assay in all cases: NCI anticancer screen, dose series, 48 h
[1] = system: A549 NSCLC
[2] = system: CAKI-1 renal
[3] = system: CCRF-CEM leukemia
[4] = system: DU-145 prostate
[5] = system: HCT-15 colon
[6] = system: HL-60(TB) leukemia
[7] = system: IGROV1 ovarian
[8] = system: RPMI-8226 leukemia
[9] = system: SF-295 CNS
[10] = system: SK-OV-3 ovarian

Question: Which results are given for Cc1[nH]c2nccn2c(=O)c1CCO?
Answer: TGI [1]: > 10 µM; TGI [2]: > 10 µM; TGI [3]: > 10 µM; TGI [4]: > 10 µM; TGI [5]: > 10 µM; TGI [6]: > 10 µM; TGI [7]: > 10 µM; TGI [8]: > 10 µM; TGI [9]: > 10 µM; TGI [10]: > 10 µM

Question: With N#CC1=C(N)N(/N=C/c2ccco2)C(c2ccco2)C1(C#N)C#N (stereo not given) as the compound, how does the TGI [1] read?
Answer: 56.2 µM

Question: What about the TGI [2] of the same compound?
Answer: 37.9 µM

Question: And the TGI [3]?
Answer: 19.2 µM

Question: What about the TGI [4] of the same compound?
Answer: 32.1 µM

Question: And the TGI [5]?
Answer: 38.8 µM

Question: What about the TGI [6] of the same compound?
Answer: 7.69 µM

Question: And the TGI [7]?
Answer: 30 µM

Question: And the TGI [8]?
Answer: 44 µM

Question: What about the TGI [9] of the same compound?
Answer: 79 µM

Question: And the TGI [10]?
Answer: 83.8 µM

Question: What does the source list for CC[C@]12C=CCN3CC[C@@]4(c5cc(Br)c(OC)cc5N(C)[C@H]4[C@@](O)(C(=O)NC(Cc4c[nH]c5ccccc45)C(=O)OC)[C@@H]1O)[C@@H]32 (stereo not given in full)?
Answer: TGI [1]: > 100 µM; TGI [2]: > 100 µM; TGI [3]: > 100 µM; TGI [4]: > 100 µM; TGI [5]: > 100 µM; TGI [6]: 91.3 µM; TGI [7]: > 100 µM; TGI [8]: 46.3 µM; TGI [9]: > 100 µM; TGI [10]: > 100 µM

Question: Which TGI [1] does the source give for O=c1c2c3c(sc2nc2n1NC=NN2)CCCC3 here?
Answer: > 100 µM

Question: What about the TGI [2] of the same compound?
Answer: 33.8 µM

Question: And the TGI [3]?
Answer: 4.88 µM

Question: And the TGI [4]?
Answer: > 90.4 µM

Question: And the TGI [5]?
Answer: 37.5 µM

Question: And the TGI [6]?
Answer: 7.34 µM

Question: And the TGI [7]?
Answer: > 56.6 µM

Question: And the TGI [8]?
Answer: 50.6 µM

Question: And the TGI [9]?
Answer: 30.2 µM

Question: And the TGI [10]?
Answer: > 65.5 µM

Question: O=C(CC(C(=O)c1cccs1)c1ccsc1)c1ccc(Cl)s1 (stereo not given) was tested. Which TGI [1] did it give?
Answer: > 100 µM

Question: And the TGI [2]?
Answer: > 100 µM

Question: And the TGI [3]?
Answer: > 100 µM

Question: What about the TGI [4] of the same compound?
Answer: > 100 µM

Question: What about the TGI [5] of the same compound?
Answer: > 100 µM

Question: And the TGI [6]?
Answer: > 100 µM

Question: And the TGI [7]?
Answer: > 100 µM

Question: And the TGI [8]?
Answer: > 100 µM

Question: And the TGI [10]?
Answer: > 100 µM

Question: How did the TGI [1] turn out when CCOC(=O)c1nc2cc(Cl)ccc2[nH]c1=O was run?
Answer: > 100 µM

Question: What about the TGI [2] of the same compound?
Answer: > 100 µM

Question: What about the TGI [3] of the same compound?
Answer: > 100 µM

Question: And the TGI [4]?
Answer: > 100 µM

Question: What about the TGI [5] of the same compound?
Answer: > 100 µM

Question: And the TGI [6]?
Answer: > 100 µM

Question: What about the TGI [7] of the same compound?
Answer: > 100 µM

Question: What about the TGI [8] of the same compound?
Answer: > 100 µM

Question: And the TGI [9]?
Answer: > 100 µM

Question: What about the TGI [10] of the same compound?
Answer: > 100 µM

Question: Which results are given for Cc1cc(O)c2c(c1)C(C1c3cccc(O)c3C(=O)c3c(O)cc(C)cc31)c1cccc(O)c1C2=O (stereo not given)?
Answer: TGI [1]: 0.97 µM; TGI [2]: 7.06 µM; TGI [3]: 10.1 µM; TGI [4]: 18.6 µM; TGI [5]: 12.3 µM; TGI [6]: 6.72 µM; TGI [7]: 4.56 µM; TGI [8]: 0.8 µM; TGI [9]: 4.31 µM; TGI [10]: 1.69 µM

Question: How did the TGI [1] turn out when COc1ccccc1C(=O)OCC1CCCN2CCCCC12 (stereo not given) was run?
Answer: > 100 µM

Question: What about the TGI [2] of the same compound?
Answer: > 100 µM

Question: And the TGI [3]?
Answer: 46.1 µM

Question: What about the TGI [4] of the same compound?
Answer: > 100 µM

Question: And the TGI [5]?
Answer: > 100 µM

Question: What about the TGI [6] of the same compound?
Answer: 44.2 µM

Question: What about the TGI [8] of the same compound?
Answer: > 100 µM

Question: And the TGI [9]?
Answer: > 100 µM

Question: And the TGI [10]?
Answer: > 100 µM

Question: CCOC(=O)c1cc(C)nc2c1c(=O)n(-c1ccccc1)c(=O)n2CCCCN1CCN(c2ncccn2)CC1 was tested. Which TGI [1] did it give?
Answer: > 100 µM

Question: And the TGI [2]?
Answer: 83.8 µM

Question: What about the TGI [3] of the same compound?
Answer: 97.7 µM

Question: And the TGI [4]?
Answer: > 100 µM

Question: And the TGI [6]?
Answer: 57.1 µM

Question: What about the TGI [7] of the same compound?
Answer: > 100 µM

Question: And the TGI [8]?
Answer: > 100 µM

Question: And the TGI [9]?
Answer: > 100 µM

Question: What about the TGI [10] of the same compound?
Answer: > 100 µM

Question: How did the TGI [1] turn out when CN(C)S(=O)(=O)c1nc(Cl)c2[nH]cnc2n1 was run?
Answer: > 100 µM

Question: What about the TGI [2] of the same compound?
Answer: > 100 µM

Question: What about the TGI [3] of the same compound?
Answer: > 100 µM

Question: And the TGI [4]?
Answer: > 100 µM

Question: What about the TGI [5] of the same compound?
Answer: > 100 µM

Question: What about the TGI [6] of the same compound?
Answer: > 100 µM

Question: And the TGI [7]?
Answer: > 100 µM

Question: And the TGI [8]?
Answer: > 100 µM

Question: And the TGI [9]?
Answer: > 100 µM

Question: What about the TGI [10] of the same compound?
Answer: > 100 µM

Question: With C(=N\NC1=NCCN1)/c1ccc2ccccc2c1 as the compound, how does the TGI [1] read?
Answer: 29.5 µM

Question: What about the TGI [2] of the same compound?
Answer: 28 µM

Question: And the TGI [3]?
Answer: 41.8 µM

Question: And the TGI [4]?
Answer: > 100 µM

Question: And the TGI [5]?
Answer: 43.6 µM

Question: And the TGI [6]?
Answer: 34.5 µM

Question: And the TGI [7]?
Answer: 24.6 µM

Question: And the TGI [8]?
Answer: 49.4 µM

Question: And the TGI [9]?
Answer: 29.9 µM

Question: And the TGI [10]?
Answer: 34.1 µM

Question: O=C(O)c1nn(-c2ccccc2)nc1-c1nn(-c2ccccc2)nc1C(=O)O was tested. Which TGI [1] did it give?
Answer: > 100 µM

Question: What about the TGI [2] of the same compound?
Answer: > 100 µM

Question: And the TGI [3]?
Answer: > 100 µM

Question: What about the TGI [4] of the same compound?
Answer: > 100 µM

Question: And the TGI [5]?
Answer: > 100 µM

Question: And the TGI [6]?
Answer: > 100 µM

Question: And the TGI [7]?
Answer: > 100 µM

Question: What about the TGI [8] of the same compound?
Answer: > 100 µM

Question: And the TGI [9]?
Answer: > 100 µM

Question: And the TGI [10]?
Answer: > 100 µM

Question: What does the source list for C(=C/c1nnnn1-c1ccccc1)/Nc1ccccc1?
Answer: TGI [1]: > 100 µM; TGI [2]: > 100 µM; TGI [3]: > 100 µM; TGI [4]: > 100 µM; TGI [5]: 44.2 µM; TGI [6]: > 100 µM; TGI [7]: > 100 µM; TGI [8]: > 100 µM; TGI [9]: 85.3 µM; TGI [10]: > 100 µM

Question: How did the TGI [1] turn out when O=c1[nH]c(=O)n(C2CC(O)C(CO)O2)cc1Br (stereo not given) was run?
Answer: > 100 µM

Question: And the TGI [2]?
Answer: > 100 µM

Question: What about the TGI [3] of the same compound?
Answer: > 100 µM

Question: What about the TGI [4] of the same compound?
Answer: > 100 µM

Question: What about the TGI [5] of the same compound?
Answer: > 100 µM

Question: What about the TGI [6] of the same compound?
Answer: > 100 µM

Question: And the TGI [7]?
Answer: > 100 µM

Question: What about the TGI [8] of the same compound?
Answer: > 100 µM

Question: What about the TGI [9] of the same compound?
Answer: > 100 µM

Question: What about the TGI [10] of the same compound?
Answer: > 100 µM

Question: With COc1ccc(/C=C/C(=O)c2ccc(Br)cc2)cc1 as the compound, how does the TGI [1] read?
Answer: > 100 µM

Question: What about the TGI [2] of the same compound?
Answer: > 100 µM

Question: What about the TGI [3] of the same compound?
Answer: > 100 µM

Question: And the TGI [4]?
Answer: > 100 µM

Question: What about the TGI [5] of the same compound?
Answer: > 100 µM

Question: What about the TGI [6] of the same compound?
Answer: > 100 µM

Question: What about the TGI [7] of the same compound?
Answer: > 100 µM

Question: And the TGI [8]?
Answer: > 100 µM

Question: What about the TGI [9] of the same compound?
Answer: > 100 µM

Question: And the TGI [10]?
Answer: > 100 µM

Question: Which TGI [1] does the source give for COc1ccc2c(c1)/c(=C/C#N)c1c3ccccc3[n+](C)n21 here?
Answer: 16.2 µM

Question: What about the TGI [2] of the same compound?
Answer: 47.3 µM

Question: And the TGI [3]?
Answer: 13.1 µM

Question: And the TGI [4]?
Answer: 8.59 µM

Question: What about the TGI [5] of the same compound?
Answer: 59.8 µM

Question: And the TGI [6]?
Answer: > 48.3 µM

Question: What about the TGI [7] of the same compound?
Answer: 31 µM

Question: And the TGI [8]?
Answer: 8.03 µM

Question: What about the TGI [9] of the same compound?
Answer: 42.1 µM

Question: What about the TGI [10] of the same compound?
Answer: > 100 µM

Question: How did the TGI [1] turn out when CCCN(CCC)C(=O)c1c(N2CCN(C)CC2)c2cccnc2n2c(C)cnc12 was run?
Answer: > 100 µM

Question: What about the TGI [2] of the same compound?
Answer: > 100 µM

Question: What about the TGI [3] of the same compound?
Answer: > 100 µM

Question: And the TGI [4]?
Answer: > 100 µM

Question: What about the TGI [5] of the same compound?
Answer: > 100 µM

Question: And the TGI [6]?
Answer: > 100 µM

Question: What about the TGI [7] of the same compound?
Answer: > 100 µM

Question: What about the TGI [8] of the same compound?
Answer: > 100 µM

Question: What about the TGI [9] of the same compound?
Answer: > 100 µM

Question: For CSc1nc(NCc2ccccc2)c2cnn(COCCO)c2n1, which TGI [1] is on record?
Answer: > 100 µM

Question: What about the TGI [2] of the same compound?
Answer: > 100 µM

Question: What about the TGI [3] of the same compound?
Answer: > 100 µM

Question: What about the TGI [4] of the same compound?
Answer: > 100 µM

Question: What about the TGI [6] of the same compound?
Answer: > 100 µM

Question: And the TGI [7]?
Answer: > 100 µM

Question: And the TGI [8]?
Answer: > 100 µM

Question: What about the TGI [9] of the same compound?
Answer: > 100 µM

Question: And the TGI [10]?
Answer: > 100 µM
